Measured values reported in PubChem BioAssay (NCI).
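How tested: cells in 96-well plates exposed to compound for 48 hours at five concentrations. GI50 marks 50% less growth. TGI: concentration producing complete growth inhibition.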

How the values were obtained:
Assay in all cases: inhibition of tumour cell growth, NCI panel, 48 h
CAKI-1 renal = system: CAKI-1 renal
UACC-257 melanoma = system: UACC-257 melanoma
HOP-62 NSCLC = system: HOP-62 NSCLC
PC-3 prostate = system: PC-3 prostate
COLO 205 colon = system: COLO 205 colon
OVCAR-4 ovarian = system: OVCAR-4 ovarian
CCRF-CEM leukemia = system: CCRF-CEM leukemia
SN12C renal = system: SN12C renal
IGROV1 ovarian = system: IGROV1 ovarian
SK-MEL-5 melanoma = system: SK-MEL-5 melanoma
MALME-3M melanoma = system: MALME-3M melanoma
OVCAR-3 ovarian = system: OVCAR-3 ovarian
OVCAR-8 ovarian = system: OVCAR-8 ovarian
NCI-H460 lung = system: NCI-H460 lung
BT-549 breast = system: BT-549 breast
NCI-H522 lung = system: NCI-H522 lung
UACC-62 melanoma = system: UACC-62 melanoma
OVCAR-5 ovarian = system: OVCAR-5 ovarian
TK-10 renal = system: TK-10 renal
KM12 colon = system: KM12 colon
SF-295 CNS = system: SF-295 CNS
RPMI-8226 leukemia = system: RPMI-8226 leukemia
SK-MEL-28 melanoma = system: SK-MEL-28 melanoma
ACHN renal = system: ACHN renal
MOLT-4 leukemia = system: MOLT-4 leukemia
HL-60(TB) leukemia = system: HL-60(TB) leukemia
T-47D breast = system: T-47D breast
SF-539 CNS = system: SF-539 CNS
HCC-2998 colon = system: HCC-2998 colon
MCF7 breast = system: MCF7 breast
K-562 leukemia = system: K-562 leukemia
HCT-15 colon = system: HCT-15 colon
MDA-MB-231 breast = system: MDA-MB-231 breast
MDA-MB-435 = system: MDA-MB-435
SK-OV-3 ovarian = system: SK-OV-3 ovarian
HS 578T breast = system: HS 578T breast
LOX IMVI melanoma = system: LOX IMVI melanoma
786-0 renal = system: 786-0 renal
M14 melanoma = system: M14 melanoma
HOP-92 NSCLC = system: HOP-92 NSCLC
DU-145 prostate = system: DU-145 prostate
SW-620 colon = system: SW-620 colon
SK-MEL-2 melanoma = system: SK-MEL-2 melanoma
U251 CNS = system: U251 CNS
A549 NSCLC = system: A549 NSCLC
SNB-19 CNS = system: SNB-19 CNS
UO-31 renal = system: UO-31 renal
NCI/ADR-RES ovarian = system: NCI/ADR-RES ovarian
RXF 393 renal = system: RXF 393 renal
A498 renal = system: A498 renal
SNB-75 CNS = system: SNB-75 CNS
NCI-H226 lung = system: NCI-H226 lung
NCI-H23 lung = system: NCI-H23 lung
SF-268 CNS = system: SF-268 CNS
HCT-116 colon = system: HCT-116 colon
EKVX NSCLC = system: EKVX NSCLC
HT29 colon = system: HT29 colon

COCO[C@@H]1CC2C=Nc3cc(OCc4ccccc4)c(OC)cc3C(=O)N2C1 (some centres undefined)
GI50 (CAKI-1 renal): 209 nM
TGI (CAKI-1 renal): 513 nM
GI50 (UACC-257 melanoma): 1090 nM
GI50 (HOP-62 NSCLC): 351 nM
TGI (HOP-62 NSCLC): 2800 nM
GI50 (PC-3 prostate): 1090 nM
TGI (PC-3 prostate): 36900 nM
GI50 (COLO 205 colon): 181 nM
TGI (COLO 205 colon): 386 nM
GI50 (OVCAR-4 ovarian): 1320 nM
TGI (OVCAR-4 ovarian): 27500 nM
GI50 (CCRF-CEM leukemia): 313 nM
TGI (CCRF-CEM leukemia): 21600 nM
GI50 (SN12C renal): 490 nM
TGI (SN12C renal): 2140 nM
GI50 (IGROV1 ovarian): 436 nM
TGI (IGROV1 ovarian): 20500 nM
GI50 (SK-MEL-5 melanoma): 357 nM
TGI (SK-MEL-5 melanoma): 908 nM
GI50 (MALME-3M melanoma): 370 nM
TGI (MALME-3M melanoma): 2790 nM
GI50 (OVCAR-3 ovarian): 222 nM
TGI (OVCAR-3 ovarian): 3130 nM
GI50 (OVCAR-8 ovarian): 348 nM
TGI (OVCAR-8 ovarian): 6520 nM
GI50 (NCI-H460 lung): 360 nM
TGI (NCI-H460 lung): 14300 nM
GI50 (BT-549 breast): 310 nM
TGI (BT-549 breast): 2390 nM
GI50 (NCI-H522 lung): 152 nM
TGI (NCI-H522 lung): 640 nM
GI50 (UACC-62 melanoma): 463 nM
TGI (UACC-62 melanoma): 1030 nM
GI50 (OVCAR-5 ovarian): 765 nM
TGI (OVCAR-5 ovarian): 5790 nM
GI50 (TK-10 renal): 869 nM
GI50 (KM12 colon): 578 nM
TGI (KM12 colon): 10600 nM
GI50 (SF-295 CNS): 559 nM
TGI (SF-295 CNS): 12100 nM
GI50 (RPMI-8226 leukemia): 211 nM
TGI (RPMI-8226 leukemia): > 20800 nM
GI50 (SK-MEL-28 melanoma): 1600 nM
TGI (SK-MEL-28 melanoma): 12600 nM
GI50 (ACHN renal): 338 nM
TGI (ACHN renal): 1710 nM
GI50 (MOLT-4 leukemia): 175 nM
GI50 (HL-60(TB) leukemia): 486 nM
TGI (HL-60(TB) leukemia): > 100000 nM
GI50 (T-47D breast): 154 nM
GI50 (SF-539 CNS): 163 nM
TGI (SF-539 CNS): 815 nM
GI50 (HCC-2998 colon): 519 nM
TGI (HCC-2998 colon): 2630 nM
GI50 (MCF7 breast): 273 nM
TGI (MCF7 breast): > 35400 nM
GI50 (K-562 leukemia): 450 nM
TGI (K-562 leukemia): > 100000 nM
GI50 (HCT-15 colon): 844 nM
TGI (HCT-15 colon): 6560 nM
GI50 (MDA-MB-231 breast): 248 nM
TGI (MDA-MB-231 breast): 1570 nM
GI50 (MDA-MB-435): 455 nM
TGI (MDA-MB-435): 1860 nM
GI50 (SK-OV-3 ovarian): 611 nM
TGI (SK-OV-3 ovarian): 6200 nM
GI50 (HS 578T breast): 572 nM
TGI (HS 578T breast): 4970 nM
GI50 (LOX IMVI melanoma): 305 nM
TGI (LOX IMVI melanoma): 10400 nM
GI50 (786-0 renal): 1300 nM
TGI (786-0 renal): 30900 nM
GI50 (M14 melanoma): 420 nM
TGI (M14 melanoma): 1390 nM
GI50 (HOP-92 NSCLC): 456 nM
TGI (HOP-92 NSCLC): 6830 nM
GI50 (DU-145 prostate): 426 nM
TGI (DU-145 prostate): 5240 nM
GI50 (SW-620 colon): 482 nM
TGI (SW-620 colon): 8610 nM
GI50 (SK-MEL-2 melanoma): 490 nM
TGI (SK-MEL-2 melanoma): 2080 nM
GI50 (U251 CNS): 508 nM
TGI (U251 CNS): 14100 nM
GI50 (A549 NSCLC): 468 nM
TGI (A549 NSCLC): 9150 nM
GI50 (SNB-19 CNS): 1060 nM
TGI (SNB-19 CNS): 44600 nM
GI50 (UO-31 renal): 237 nM
TGI (UO-31 renal): 2140 nM
GI50 (NCI/ADR-RES ovarian): 703 nM
TGI (NCI/ADR-RES ovarian): 6390 nM
GI50 (RXF 393 renal): 242 nM
TGI (RXF 393 renal): 972 nM
GI50 (A498 renal): 976 nM
TGI (A498 renal): 3250 nM
GI50 (SNB-75 CNS): 1090 nM
GI50 (NCI-H226 lung): 2880 nM
TGI (NCI-H226 lung): 61100 nM
GI50 (NCI-H23 lung): 672 nM
TGI (NCI-H23 lung): 1970 nM
GI50 (SF-268 CNS): 646 nM
TGI (SF-268 CNS): 9310 nM
GI50 (HCT-116 colon): 660 nM
TGI (HCT-116 colon): 26000 nM
GI50 (EKVX NSCLC): 1090 nM
TGI (EKVX NSCLC): 4850 nM
GI50 (HT29 colon): 400 nM
TGI (HT29 colon): > 100000 nM
